Test results reported in US20230055021A1, “METHODS FOR TREATING PSYCHIATRIC DISORDERS OR SYMPTOMS THEREOF USING NCAM PEPTIDE MIMETICS” (The Board of Trustees of the Leland Stanford Junior …, priority 2012, published 2023).

Columns and labels:
adult rats [1] = assay: forced swim test (FST), depression-like behavior; assay type: in vivo
Description: The NCAM peptide mimetic FGLm (5 μg) or vehicle was administered intracerebroventricularly (i.c.v.) to adult rats. […]
FGLL (10 mg/kg, s.c.) or control was also administered to adult rats via injection every 24 hours for 16 days. Animals were tested for locomotion on Day 13, tested for anxiety-like behavior with the EPM on Day 14, tested for depression-like behavior with the FST on Days 15 and 16, and sacrificed on Day 17. […]

adult rats [2] = assay: elevated plus maze (EPM), anxiety-like behavior; assay type: in vivo; settings: 1, 5 or 10 mg/kg s.c., injected 30 minutes before test
Description: The NCAM peptide mimetic FGLL (1 mg/kg, 5 mg/kg, or 10 mg/kg) or control was administered subcutaneously (s.c.) to adult rats. For the elevated plus maze (EPM), which measures anxiety-like behavior, animals were injected 30 minutes before the test. For the FST, which measures depression-like behavior, animals were injected 1 hour and 5 hours after Day 1 and 30 minutes before Day 2.
The NCAM peptide mimetic plannexin (10 mg/kg) or vehicle control was acutely administered intraperitoneally (i.p.) to adult rats.
Plannexin (10 mg/kg, i.p.) or control was also chronically administered to adult rats via injection every 48 hours on odd days. Animals were tested for locomotion on Day 13, tested for anxiety-like behavior with the EPM on Day 14, tested for depression-like behavior with the FST on Days 15 and 16, and sacrificed on Day 17.

[3] = 10 mg/kg s.c. every 24 hours for 16 days, FST on Days 15 and 16

Row | Molecule | effect on depression as measured by the FST (adult rats [1]; 5 μg i.c.v., vs vehicle) | immobility in FST (adult rats [1]; 5 μg i.c.v., vs vehicle) | swimming in FST (adult rats [1]; 5 μg i.c.v., vs vehicle) | climbing in FST (adult rats [1]; [3]) | effect on depression as measured by the FST (adult rats [1]; [3]) | immobility in FST (adult rats [1]; [3]) | effect on anxiety as measured by the EPM (adult rats [2]) | time spent in the Closed parts of the EPM (adult rats [2]; effect at higher doses)
1 | EVYVVAENQQGKSKA [FGLm, NCAM peptide mimetic] | decreased depression | less immobility | significantly more swimming |  |  |  |  | 
2 | CC(C)[C@H](NC(=O)[C@H](CCC(=O)O)NC(=O)CNCC(=O)N[C@@H](CCC(=O)O)C(=O)N[C@H](C(=O)N[C@H](C(=O)N[C@@H](C)C(=O)N[C@@H](CCC(=O)O)C(=O)N[C@@H](CC(N)=O)C(=O)N[C@@H](CCC(N)=O)C(=O)N[C@@H](CCC(N)=O)C(=O)NCC(=O)N[C@@H](CCCCN)C(=O)N[C@@H](CO)C(=O)N[C@@H](CCCCN)C(=O)N[C@@H](C)C(N)=O)C(C)C)C(C)C)C(=O)N[C@H](C(=O)N[C@@H](C)C(=O)N[C@@H](CCC(=O)O)C(=O)N[C@@H](CC(N)=O)C(=O)N[C@@H](CCC(N)=O)C(=O)N[C@@H](CCC(N)=O)C(=O)NCC(=O)N[C@@H](CCCCN)C(=O)N[C@@H](CO)C(=O)N[C@@H](CCCCN)C(=O)N[C@@H](C)C(N)=O)C(C)C (stereo in doubt) [FGLL] |  |  |  | significantly more climbing | decreased depression | less immobility | increased anxiety | significantly increased
